This note sets out measurements from patent US20220220135A1 (BAR-ILAN UNIVERSITY, priority 2019, published 2022).

Each structure is given as a SMILES string. Like-named read-outs stand apart in the source and are kept apart here.

What all share (assay type): biochemical
One test deals with T1, NTPDase3 (Homo sapiens, UniProt O75355).
T1 sequence (O75355 1-529): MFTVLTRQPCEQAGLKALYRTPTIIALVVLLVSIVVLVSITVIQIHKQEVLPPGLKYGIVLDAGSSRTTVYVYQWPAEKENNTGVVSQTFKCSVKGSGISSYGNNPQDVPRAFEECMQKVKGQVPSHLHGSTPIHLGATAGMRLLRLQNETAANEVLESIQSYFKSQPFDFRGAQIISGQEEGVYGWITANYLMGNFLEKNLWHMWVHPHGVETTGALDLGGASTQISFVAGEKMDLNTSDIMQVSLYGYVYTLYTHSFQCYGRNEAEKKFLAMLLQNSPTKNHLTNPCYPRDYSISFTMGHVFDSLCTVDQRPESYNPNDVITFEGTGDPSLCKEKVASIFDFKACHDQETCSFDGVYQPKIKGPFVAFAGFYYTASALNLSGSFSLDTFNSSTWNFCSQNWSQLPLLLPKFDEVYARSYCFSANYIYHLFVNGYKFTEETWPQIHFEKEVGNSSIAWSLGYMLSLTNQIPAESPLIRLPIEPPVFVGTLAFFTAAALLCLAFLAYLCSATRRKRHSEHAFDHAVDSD
The test is described as follows: Inhibition of ATPase activity of human NTPDase3. The settings on record: analogue at 100 μM; ATP 100 μM as substrate. On the procedure:
(§1) FIG. 2: Inhibition of NTPDases and NPPs by analogues 9-12 using as substrates ATP (100 μM) for NTPDase1,2,3,8 and pNP-TMP (100 μM) for NPP1,3 (Panel A); and ATP (100 μM) was used as the substrate for NPP1 (Panel B);
(§2) At least 2 independent experiments were performed. In panel A, the activity with 100 μM ATP was set as 100%, which was 287±31, 395±67, 278±22, 119±26 nmol of Pi·min−1·mg of protein−1 for human NTPDase1, -2, -3 and -8, respectively, and the activity with 100 μM pNP-TMP was set as 100% which was 67±5, 21±1 nmol of p-nitrophenol·min−1·mg of protein−1 for human NPP1 and NPP3, respectively. In panel B, the activity with 100 μM ATP was set as 100% which was 34±7 nmol of PPi·min−1·mg of protein−1 for NPP1.

The next test deals with T2, NTPDase8 (Homo sapiens, UniProt Q5MY95).
T2 sequence (Q5MY95 1-495): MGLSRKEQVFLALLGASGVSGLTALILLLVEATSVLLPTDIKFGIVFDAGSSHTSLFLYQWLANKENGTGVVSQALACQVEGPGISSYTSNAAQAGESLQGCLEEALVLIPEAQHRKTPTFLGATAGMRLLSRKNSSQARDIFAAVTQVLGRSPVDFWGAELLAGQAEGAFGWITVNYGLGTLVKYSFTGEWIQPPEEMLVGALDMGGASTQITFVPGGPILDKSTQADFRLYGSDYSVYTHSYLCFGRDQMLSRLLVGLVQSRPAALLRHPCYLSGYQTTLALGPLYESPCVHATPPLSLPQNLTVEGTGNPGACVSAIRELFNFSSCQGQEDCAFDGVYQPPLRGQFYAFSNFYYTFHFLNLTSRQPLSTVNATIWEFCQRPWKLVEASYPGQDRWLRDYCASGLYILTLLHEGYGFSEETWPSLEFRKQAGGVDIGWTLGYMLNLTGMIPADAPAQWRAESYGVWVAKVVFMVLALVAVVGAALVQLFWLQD
Put plainly: Inhibition of ATPase activity of human NTPDase8. The settings on record: analogue at 100 μM; ATP 100 μM as substrate. The protocol: as §1, §2

The target in the next test is T3, NPP1 (Homo sapiens, UniProt P22413).
T3 sequence (P22413 1-925): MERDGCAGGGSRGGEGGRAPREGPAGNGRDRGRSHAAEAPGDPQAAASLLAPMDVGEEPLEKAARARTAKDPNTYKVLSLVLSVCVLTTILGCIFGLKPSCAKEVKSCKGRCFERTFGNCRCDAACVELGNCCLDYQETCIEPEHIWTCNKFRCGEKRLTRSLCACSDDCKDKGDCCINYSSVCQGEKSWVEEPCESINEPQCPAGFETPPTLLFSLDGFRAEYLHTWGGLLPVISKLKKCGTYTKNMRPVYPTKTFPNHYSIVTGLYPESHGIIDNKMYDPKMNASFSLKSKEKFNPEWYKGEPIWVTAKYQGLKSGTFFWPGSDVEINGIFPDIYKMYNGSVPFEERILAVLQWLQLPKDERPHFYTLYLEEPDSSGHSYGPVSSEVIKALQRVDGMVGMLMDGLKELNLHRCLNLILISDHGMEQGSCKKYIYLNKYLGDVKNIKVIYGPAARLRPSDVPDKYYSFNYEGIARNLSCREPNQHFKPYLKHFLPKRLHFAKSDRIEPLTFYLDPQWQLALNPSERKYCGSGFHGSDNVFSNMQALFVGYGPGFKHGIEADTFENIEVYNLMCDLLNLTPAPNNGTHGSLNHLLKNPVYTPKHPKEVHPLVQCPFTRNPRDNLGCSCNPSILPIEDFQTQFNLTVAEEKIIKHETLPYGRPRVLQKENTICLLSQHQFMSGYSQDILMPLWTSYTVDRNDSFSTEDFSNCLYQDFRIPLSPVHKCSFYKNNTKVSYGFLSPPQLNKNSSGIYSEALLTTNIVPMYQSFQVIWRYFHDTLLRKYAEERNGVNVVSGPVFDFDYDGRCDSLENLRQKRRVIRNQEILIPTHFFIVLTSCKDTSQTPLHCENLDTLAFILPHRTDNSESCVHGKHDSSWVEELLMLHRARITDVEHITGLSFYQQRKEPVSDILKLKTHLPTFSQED
The test is described as follows: Inhibition of human NPP1, pNP-TMP as substrate (analogues 9-12). The protocol:
as §1
Analogues 9-12 were evaluated for their ability to inhibit human NPP1.
as §2

Where [1] appears, read: analogue at 100 μM, pNP-TMP 100 μM as substrate.
Setting [2] is: pNP-TMP as a substrate, mean±SEM.
The mark [3] stands for this setting: pNP-TMP as a substrate, mean±SEM, read-out: Ki (μM), NPP1 inhibition.

With `O=c1ccn([C@@H]2O[C@H](COP(=S)(S)OP(=O)(O)OP(=O)(O)O)[C@@H](O)[C@H]2O)c(=O)[nH]1` (some centres unmarked) [Analogue 10], the “inhibition of human NTPDase3” value against NTPDase3 is recorded as “no inhibition”. Moreover, the “inhibition of human NTPDase8” value on NTPDase8 is recorded as “no inhibition”. The inhibition (commonly the relative decrease from the control value, in per cent) at 100 µM against NPP1 (setting [1]) was 100%. For the same compound, at NPP1 (setting [2]), the IC50 (commonly the concentration needed to halve the response being measured) turned out to be 1.2 ± 0.1 µM. On NPP1 (setting [3]), the Ki (in general, a measure of affinity in units of concentration, obtained from inhibition or displacement) worked out at 0.24 ± 0.02 µM.
Turning to `O=c1ccn([C@@H]2O[C@H](COP(=S)(S)OP(=O)(O)CP(=O)(O)O)[C@@H](O)[C@H]2O)c(=O)[nH]1` (some centres unmarked) [Analogue 11], at NTPDase3, the “inhibition of human NTPDase3” value is recorded as “negligible effects”. Also, at NTPDase8, the “inhibition of human NTPDase8” value is given as “negligible effects”. The compound further yielded an IC50 on NPP1 (setting [2]) of 4.3 ± 0.1 µM. For the same compound, the Ki on NPP1 (setting [3]) came to 1.11 ± 0.19 µM.
Take `O=c1ccn([C@@H]2O[C@H](COP(=S)(S)OP(=O)(O)OP(=O)(O)OP(=S)(S)OC[C@H]3O[C@@H](n4ccc(=O)[nH]c4=O)[C@H](O)[C@@H]3O)[C@@H](O)[C@H]2O)c(=O)[nH]1` (some centres unmarked) [Analogue 12]: the inhibition at 100 µM at NTPDase3 is 24%. Further, on NTPDase8, the “inhibition of human NTPDase8” value was “selective to NPP1”. In addition, the “inhibition of human NPP1” value against NPP1 (setting [1]) is “effectively blocked”. The compound also yielded an IC50 against NPP1 (setting [2]) of 0.125 ± 0.004 µM. The Ki at NPP1 (pNP-TMP as the substrate, read-out: Ki, NPP1) is 0.027 µM.
